# Measurements reported in US20050037983A1, “Compositions and methods for the treatment of depression and other affective disorders” (priority 2003, published 2005).
# Like-named read-outs stand apart in the source and are kept apart here.
# Legend:
# neutrophils = details: cited from earlier work
# [1] = system: subject with major depression; assay: Case reports: add-on anti-inflammatory in subjects with major depression, rated on 17 item Hamilton rating scale for depression (HAMD); type: in vivo, human; details: person
# Procedure: A subject with a 4-5 month history of depression was used in this example. The subject's complaints included low mood, anhedonia, anxiety, poor concentration, significant initial insomnia, mild anorexia and weight loss of approximately 2 kilos. Symptoms were precipitated by problems both in the work and home environment. A diagnosis of major depression was made.
# Over three weeks this was increased to 300 mg daily.
# Rofecoxib 50 mg daily was added to the venlafaxine.
# A subject with a long history of recurring depression was used in this example. The current episode was present for 3 months when initially seen. They were low in mood, tearful, irritable, very anxious and had significant sleep disturbance in the form of initial and delayed insomnia. There was no clear precipitant for their symptoms.
# They had been taking venlafaxine for approximately 1 year at a maximum tolerated dose of 225 mg daily.
# [2] = system: subjects with DSM-IV major depression; assay: Human study: 36 subjects with DSM-IV major depression, three randomised groups, response rates; type: in vivo; details: Hamilton score greater than 20 at entry; Vioxx 30 mg/day; compared among three groups incl. placebo
# Procedure: Thirty six (36) subjects with DSM-IV major depression and Hamilton score greater than 20 were recruited. Subjects were randomly allocated into each of three groups • 1. SSRI plus Vioxx 30 mg/day • 2. Vioxx, 30 mg/day • 3. Placebo All subjects have base line Il-6, IL-1 and cortisol levels assayed using specific assays. Biochemical assays are repeated at the end of weeks 1, 3 and 6. […] Response to treatment was associated with a drop in cortisol levels and pro-inflammatory cytokines.
# [3] = in vivo; cited from earlier work
# IL-6 = details: in vitro; cited from earlier work
# cyclooxygenase = details: cited from earlier work
# [4] = system: subjects treated with IFN-α; details: cited from earlier work; for IL-6 level compared with placebo: as early as four hours after a single dose
# [5] = subjects treated with interferon alpha
compound,measurement,setting,value
O=C(O)c1cc(/N=N/c2ccc(S(=O)(=O)Nc3ccccn3)cc2)ccc1O [sulfasalazine],induction of apoptosis in neutrophils,neutrophils,capable of inducing apoptosis
CS(=O)(=O)c1ccc(C2=C(c3ccccc3)C(=O)OC2)cc1 [Rofecoxib],HAMD score,"[1]; baseline HAMD 22, Rofecoxib 50 mg daily added to venlafaxine 300 mg daily, after 1 week",11
same,time to improvement after commencing treatment,"[1]; Rofecoxib 50 mg daily added to venlafaxine, subject's description",≤ 5 days
same,clinical state at review,"[1]; Rofecoxib added to venlafaxine, reviewed 2 weeks later",sustained
same,response rates,[2],greater than that observed for placebo
COc1ccc(C(CN(C)C)C2(O)CCCCC2)cc1 (stereo not drawn) [venlafaxine],clinical improvement,"[1]; venlafaxine 300 mg daily alone, after 4 weeks on this dose",No clinical improvement
C[C@@H](C(=O)O)c1ccc(-c2ccccc2)c(F)c1 [R-flurbiprofen],gastrointestinal mucosal damage,[3],does not cause gastrointestinal mucosal damage
same,potency of R-enantiomer versus S-enantiomer in down-regulating IL-6 levels,IL-6,significantly more potent
same,inhibition of cyclooxygenase activity,cyclooxygenase,does not inhibit cyclooxygenase activity
CC(C)Cc1ccc(C(C)C(=O)O)cc1 (stereo not drawn) [Ibruprofen],HAMD,"[1]; baseline HAMD 20, 400 mg three times daily added to venlafaxine 225 mg daily, day 14",8
same,day of reported symptomatic improvement,[1]; 400 mg three times daily added to venlafaxine,≤ 8 days
"CC(C)Cc1ccc([C@@H](C)C(=O)O)cc1 [ibuprofen, R-ibuprofen]",potency of R-enantiomer versus S-enantiomer in down-regulating IL-6 levels,IL-6,significantly more potent
CN(C)CCCC1(c2ccc(F)cc2)OCc2cc(C#N)ccc21 (stereo not drawn) [citalopram],clinical response,"[1]; citalopram 20 mg daily alone, after 5 weeks",no response
IFN-α,IL-6 level compared with placebo,[4],significantly increased
same,IL-6 level compared with placebo,[4]; listed as IFN-alpha,significantly increases
same,subjects in whom major depression is reported,[4]; [5],up to 40%
Fc1ccc([C@@H]2CCNC[C@H]2COc2ccc3c(c2)OCO3)cc1 [paroxetine],impact in preventing depression,[4]; [5],modest impact
"C[C@@H](C(=O)O)c1cccc(C(=O)c2ccccc2)c1 [ketoprofen, R-ketoprofen]",potency of R-enantiomer versus S-enantiomer in down-regulating IL-6 levels,IL-6,significantly more potent
